Results: patent publication US20260184726A1, “HETEROCYCLIC COMPOUNDS AS KINASE INHIBITORS, COMPOSITIONS, AND METHODS OF USE THEREOF” (JS INNOMED HOLDINGS LTD., priority 2022, published 2026)

Tests used:
[1] = target: T1, human RET kinase (Homo sapiens, UniProt P07949); test: RET Kinase Assay (mobility shift assay, ATP at Km); assay type: biochemical; conditions: 23 μM ATP (Km), read-out: RET Enzymatic Activity
T1 construct: purchased Carna 08-159
Summary of the method: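 Human RET (7 nM) pre-incubated with compound 15 min at room temperature in 50 mM HEPES pH 7.5, 0.0015% Brij-35; reaction with 3 μM FAM-P2 peptide and 23 μM ATP (Km) 1 h at 28° C, EDTA-stopped. Mobility shift read; IC50 from sigmoid fit of percent of 2% DMSO control.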

[2] = target: T2, BAF3-KIF5B-RET cells (Homo sapiens, UniProt P07949); test: BAF3-KIF5B-RET Cell Proliferation Assay (CellTiter-Glo); assay type: cell-based; conditions: growth inhibition, 72 hours; Table 2; read-out: BA/F3-KIF5B-RET Cellular activity
T2 construct: fused on or other part: P33176 (Kinesin-1 heavy chain)
Summary of the method: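 Ba/F3 cells driven by KIF5B-RET (wild-type, V804M or G810R) or TEL-RET-M918T, 2,000 per well in RPMI/10% FBS, attached 24 h. Treated 72 h at 37° C with compound from 0.00015 to 1 μM final, 0.1% DMSO. CellTiter-Glo luminescence relative to DMSO wells gave IC50.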

T2 sequence (P07949 whole entry, change not shown, the tested form may be a part): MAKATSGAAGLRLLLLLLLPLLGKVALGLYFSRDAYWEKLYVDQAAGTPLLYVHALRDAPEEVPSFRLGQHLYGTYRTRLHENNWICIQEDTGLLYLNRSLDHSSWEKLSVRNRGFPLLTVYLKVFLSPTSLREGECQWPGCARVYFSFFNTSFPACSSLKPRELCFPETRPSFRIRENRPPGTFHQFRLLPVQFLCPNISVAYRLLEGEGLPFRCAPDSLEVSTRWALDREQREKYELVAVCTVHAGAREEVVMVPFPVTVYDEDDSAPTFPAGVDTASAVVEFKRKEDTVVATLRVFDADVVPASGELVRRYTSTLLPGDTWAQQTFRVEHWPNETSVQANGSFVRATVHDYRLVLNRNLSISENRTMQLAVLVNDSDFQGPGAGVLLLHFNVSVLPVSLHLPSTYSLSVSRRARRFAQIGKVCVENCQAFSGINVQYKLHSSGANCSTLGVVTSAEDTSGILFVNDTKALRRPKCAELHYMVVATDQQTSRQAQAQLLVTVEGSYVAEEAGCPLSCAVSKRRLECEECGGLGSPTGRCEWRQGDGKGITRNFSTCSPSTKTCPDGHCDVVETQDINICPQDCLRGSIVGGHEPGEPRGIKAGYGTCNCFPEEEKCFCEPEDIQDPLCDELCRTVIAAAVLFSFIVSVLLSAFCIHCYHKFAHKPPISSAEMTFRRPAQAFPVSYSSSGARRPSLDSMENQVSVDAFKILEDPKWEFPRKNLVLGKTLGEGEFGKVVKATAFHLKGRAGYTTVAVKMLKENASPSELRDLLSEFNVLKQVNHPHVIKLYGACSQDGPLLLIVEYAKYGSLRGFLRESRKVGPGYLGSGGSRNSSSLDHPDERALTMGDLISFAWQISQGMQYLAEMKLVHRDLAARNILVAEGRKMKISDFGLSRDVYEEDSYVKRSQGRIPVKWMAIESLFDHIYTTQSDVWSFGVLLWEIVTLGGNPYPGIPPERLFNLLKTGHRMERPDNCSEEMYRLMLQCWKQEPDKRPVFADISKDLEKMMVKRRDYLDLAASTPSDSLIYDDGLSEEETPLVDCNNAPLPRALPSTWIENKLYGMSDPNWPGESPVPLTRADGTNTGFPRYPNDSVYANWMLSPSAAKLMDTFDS
T1 sequence (P07949 29-1114): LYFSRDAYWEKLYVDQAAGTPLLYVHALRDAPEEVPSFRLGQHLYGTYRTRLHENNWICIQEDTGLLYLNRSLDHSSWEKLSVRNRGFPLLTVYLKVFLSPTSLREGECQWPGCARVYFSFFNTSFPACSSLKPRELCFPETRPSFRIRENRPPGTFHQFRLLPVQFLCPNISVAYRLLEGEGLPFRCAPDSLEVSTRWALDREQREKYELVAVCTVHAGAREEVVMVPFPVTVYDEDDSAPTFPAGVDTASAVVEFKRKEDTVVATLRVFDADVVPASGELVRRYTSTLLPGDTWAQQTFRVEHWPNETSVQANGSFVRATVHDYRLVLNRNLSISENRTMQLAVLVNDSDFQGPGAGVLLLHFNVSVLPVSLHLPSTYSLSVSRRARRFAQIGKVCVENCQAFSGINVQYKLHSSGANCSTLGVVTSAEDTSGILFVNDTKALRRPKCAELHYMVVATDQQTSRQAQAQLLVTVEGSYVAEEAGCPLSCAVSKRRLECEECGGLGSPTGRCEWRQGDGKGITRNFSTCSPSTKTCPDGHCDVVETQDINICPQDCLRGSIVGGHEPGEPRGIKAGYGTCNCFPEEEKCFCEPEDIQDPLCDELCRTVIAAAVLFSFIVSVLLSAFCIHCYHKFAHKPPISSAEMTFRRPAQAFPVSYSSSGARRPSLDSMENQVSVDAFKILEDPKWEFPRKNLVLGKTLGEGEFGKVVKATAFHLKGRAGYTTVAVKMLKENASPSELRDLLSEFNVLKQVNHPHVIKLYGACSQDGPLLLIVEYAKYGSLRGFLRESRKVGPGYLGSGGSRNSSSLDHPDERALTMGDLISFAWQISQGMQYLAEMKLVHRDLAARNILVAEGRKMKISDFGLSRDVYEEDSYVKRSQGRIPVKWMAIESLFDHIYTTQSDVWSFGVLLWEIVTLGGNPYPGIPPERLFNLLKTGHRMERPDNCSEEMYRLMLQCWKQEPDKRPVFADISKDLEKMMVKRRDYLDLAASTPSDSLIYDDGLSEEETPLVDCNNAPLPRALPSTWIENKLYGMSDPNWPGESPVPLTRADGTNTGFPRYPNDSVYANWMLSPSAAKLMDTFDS

## COc1ccc(CN2C3CC2CN(c2ccc(-c4cc(-c5ccc(C(C)(C)NC(C)=O)cn5)cn5ncc(C#N)c45)cn2)C3)cn1 [Example 12, N-(2-(6-(3-cyano-4-(6-(6-((6-methoxypyridin-3-yl)methyl)-3,6-diazabicyclo[3.1.1]heptan-3-yl)pyridin-3-yl)pyrazolo[1,5-a]pyridin-6-yl)pyridin-3-yl)propan-2-yl)acetamide]
[1]
  IC50: 0.4 nM
[2]
  GI50: 1 nM
